For 26 compounds, IC50 results are on record in US20140221374A1, “RAF KINASE INHIBITORS” (Ruga Corporation, priority 2011, published 2014).

The structures appear in SMILES notation.

One assay has as its target V600E-mutated B-RAF (Homo sapiens, UniProt P15056, V600E). Nature of the assay: In vitro assay for inhibition of mutant B-RAF kinase (recombinant V600E-mutated B-RAF, MEK (K97R) substrate). The format is biochemical. As to conditions: 10 nM recombinant V600E-mutated B-RAF. As for the experimental part: (§1) The ability of compounds described herein to inhibit RAF kinase activity were determined from biochemical kinase inhibition assays using recombinant RAF proteins as known in the art.
Solutions of varying concentrations of test compounds or vehicle were added to 10 nM recombinant V600E-mutated B-RAF proteins incubated in the presence of different concentrations of ATP and […] (K97R) as substrate, as previously described (Wilhelm, S. M., et al., Cancer Res., 64: 7099-7109, 2004; Mason, C. S., et al.; EMBO J. 18: 2137-2.148, 1999; Marais, R., et al., J. Biol. Chem., 272: 4378-4383, 1997). At least triplicate determinations for each individual test compound concentration were made and data plotted as mean±standard deviation relative to the control vehicle.

The test system of assay [1] is A375 cells (V600E activated B-RAF). Nature of the assay: In vitro tumor cell growth inhibition, MTT, 72 hours. The class given is cell-based. As to conditions: Homo sapiens, A-375, 72 hours incubation. As for the experimental part: Briefly, growth inhibition of cells containing V600E activated B-RAF (A375, Colo205) versus cell lines with wild-type B-RAF (A431) were measured under anchorage-dependent conditions using MTT (3-(4,5-dimethylthiazol-2-yl)-2,5-diphenyltetrazolium bromide), following 72 hours incubation with either compound or vehicle, as previously described (Haass, N. K., et al., Clinical Cancer Res., 14: 230-239, 2008): Cell lines are obtained from the American Type Tissue Culture Collection (Maryland, USA) and cultured in media containing heat-inactivated 10% fetal bovine serum. Cell cultures were also maintained in 10 U/mL, penicillin, 100 μg/mL streptomycin and 2 mM glutamine. At least triplicate determinations for each individual test compound concentration were made and data plotted as mean±standard deviation relative to the control vehicle.

In a further assay the target is wild-type C-RAF (Homo sapiens, UniProt P04049). As to the kind of experiment: In vitro assay for inhibition of RAF kinases (recombinant wild-type C-RAF, MEK (K97R) substrate). The class given is biochemical. The settings on record: 10 nM recombinant wild-type C-RAF. As for the experimental part:
as §1
Solutions of varying concentrations of test compounds or vehicle were added to 10 nM recombinant wild-type A-RAF, wild-type B-RAF, or wild-type C-RAF proteins incubated in the presence of different concentrations of ATP and 1 μM MEK (K97R) as substrate, as previously described (Wilhelm, S. M., et al., Cancer Res., 64: 7099-7109, 2004; Mason, C S., et al., EMBO J. 18: 2137-2148, 1999; Marais, R., et al., J. Biol. Chem., 272: 4378-4383, 1997). At least triplicate determinations for each individual test compound concentration were made and data plotted as mean±standard deviation relative to the control vehicle.

Chain of V600E-mutated B-RAF (P15056 whole entry V600E): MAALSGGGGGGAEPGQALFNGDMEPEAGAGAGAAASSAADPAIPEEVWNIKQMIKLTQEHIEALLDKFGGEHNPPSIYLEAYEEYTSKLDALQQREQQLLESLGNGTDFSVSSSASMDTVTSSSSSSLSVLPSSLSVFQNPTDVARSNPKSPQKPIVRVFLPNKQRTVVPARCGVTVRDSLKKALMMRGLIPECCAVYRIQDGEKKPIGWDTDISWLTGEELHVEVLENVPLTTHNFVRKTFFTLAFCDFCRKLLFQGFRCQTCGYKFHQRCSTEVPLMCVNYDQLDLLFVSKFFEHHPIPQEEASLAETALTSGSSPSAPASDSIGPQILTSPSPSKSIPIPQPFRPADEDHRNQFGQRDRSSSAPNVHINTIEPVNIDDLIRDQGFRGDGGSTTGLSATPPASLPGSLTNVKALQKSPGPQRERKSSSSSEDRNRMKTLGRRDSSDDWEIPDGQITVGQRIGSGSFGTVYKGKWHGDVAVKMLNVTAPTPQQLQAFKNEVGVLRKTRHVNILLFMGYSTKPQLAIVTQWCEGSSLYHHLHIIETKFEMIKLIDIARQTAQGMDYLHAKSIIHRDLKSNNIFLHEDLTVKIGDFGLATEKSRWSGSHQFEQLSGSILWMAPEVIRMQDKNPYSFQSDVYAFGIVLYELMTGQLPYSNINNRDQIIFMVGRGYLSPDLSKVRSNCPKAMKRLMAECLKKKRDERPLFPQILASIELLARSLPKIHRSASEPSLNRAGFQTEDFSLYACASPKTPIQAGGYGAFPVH
Chain of wild-type C-RAF (P04049 whole entry): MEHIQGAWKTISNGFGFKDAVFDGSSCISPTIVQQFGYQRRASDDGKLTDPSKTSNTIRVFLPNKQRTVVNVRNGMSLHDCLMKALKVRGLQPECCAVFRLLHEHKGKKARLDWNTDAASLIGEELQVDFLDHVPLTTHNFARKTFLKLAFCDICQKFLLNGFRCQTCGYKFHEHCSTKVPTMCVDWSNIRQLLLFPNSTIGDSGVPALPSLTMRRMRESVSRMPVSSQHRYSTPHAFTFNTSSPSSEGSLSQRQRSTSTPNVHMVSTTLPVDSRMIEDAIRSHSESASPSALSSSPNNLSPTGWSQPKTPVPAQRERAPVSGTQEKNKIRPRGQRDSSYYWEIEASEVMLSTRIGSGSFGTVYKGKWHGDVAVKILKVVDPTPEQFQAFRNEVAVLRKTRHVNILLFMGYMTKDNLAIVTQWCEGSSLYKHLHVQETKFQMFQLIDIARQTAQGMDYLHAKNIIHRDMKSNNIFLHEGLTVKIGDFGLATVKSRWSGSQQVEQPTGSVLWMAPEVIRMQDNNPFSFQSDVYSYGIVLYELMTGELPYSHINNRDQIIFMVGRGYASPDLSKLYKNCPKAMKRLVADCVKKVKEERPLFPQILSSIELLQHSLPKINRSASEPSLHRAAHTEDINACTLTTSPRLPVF

With `Cc1ccc(NC(=O)Nc2cc(-c3sc(C)nc3-c3ccncc3)ccc2F)cc1` [Example 7, 1-(2-fluoro-5-(2-methyl-4-(pyridin-4-yl)thiazol-5-yl)phenyl)-3-p-tolylurea], the IC50 (in general, the concentration that inhibits the measured activity by half) at V600E-mutated B-RAF is at most 0.1 µM; in assay [1], 1 to 10 µM; on wild-type C-RAF, 0.1 to 1 µM.
For the compound `Cc1nc(-c2ccncc2)c(-c2ccc(F)c(NC(=O)Nc3ccc(C(F)(F)F)cc3)c2)s1` [Example 14, 1-(2-fluoro-5-(2-methyl-4-(pyridin-4-yl)thiazol-5-yl)phenyl)-3-(4-(trifluoromethyl)phenyl)urea], the IC50 was at most 0.1 µM at V600E-mutated B-RAF and 1 to 10 µM in assay [1].
The corresponding values for `Cc1ccc(NC(=O)Cc2cccc(-c3sc(C)nc3-c3ccncc3)c2)cc1` [Example 47, 2-(3-(2-methyl-4-(pyridin-4-yl)thiazol-5-yl)phenyl)-N-p-tolylacetamide] are at most 0.1 µM and above 10 µM.
With `Cc1nc(-c2ccnc(N)c2)c(-c2cccc(NC(=O)Nc3ccc(Cl)cc3)c2)s1` [Example 21, 1-(3-(4-(2-aminopyridin-4-yl)-2-methylthiazol-5-yl)phenyl)-3-(4-chlorophenyl)urea], the results for the IC50 (on V600E-mutated B-RAF; in assay [1]) were at most 0.1 µM and 1 to 10 µM, respectively.
Take `O=C(Nc1ccc(Cl)cc1)Nc1cccc(-c2sc(NCCN3CCOCC3)nc2-c2ccncc2)c1` [Example 34, 1-(4-chlorophenyl)-3-(3-(2-(2-morpholinoethylamino)-4-(pyridin-4-yl)thiazol-5-yl)phenyl)urea]: the results for the IC50 (at V600E-mutated B-RAF; in assay [1]) were at most 0.1 µM and 1 to 10 µM, respectively.
As for `Cc1ccc(NC(=O)Nc2cccc(-c3sc(C)nc3-c3ccnc(N)c3)c2)cc1` [Example 20, 1-(3-(4-(2-aminopyridin-4-yl)-2-methylthiazol-5-yl)phenyl)-3-p-tolylurea], the IC50 is at most 0.1 µM at V600E-mutated B-RAF and 1 to 10 µM in assay [1].
`Cc1nc(-c2ccnc(N)c2)c(-c2cc(NC(=O)Nc3ccc(C(F)(F)F)cc3)c(F)cc2F)s1` [Example 25, 1-(5-(4-(2-aminopyridin-4-yl)-2-methylthiazol-5-yl)-2,4-difluorophenyl)-3-(4-(trifluoromethyl)phenyl)urea]: the IC50 at V600E-mutated B-RAF was at most 0.1 µM; in assay [1], 1 to 10 µM.
`CCn1cc(-c2cccc(NC(=O)Nc3ccc(C(F)(F)F)cc3)c2)c(-c2ccncc2)n1` [Example 52, 1-(3-(1-ethyl-3-(pyridin-4-yl)-1H-pyrazol-4-yl)phenyl)-3-(4-(trifluoromethyl)phenyl)urea]: the figures for the IC50 (at V600E-mutated B-RAF; in assay [1]; on wild-type C-RAF) were at most 0.1 µM, at most 0.1 µM and 0.1 to 1 µM, respectively.
On to `O=C(Nc1ccc(C(F)(F)F)cc1)Nc1cc(-c2sc(NCCN3CCOCC3)nc2-c2ccncc2)ccc1F` [Example 35, 1-(2-fluoro-5-(2-(2-morpholinoethylamino)-4-(pyridin-4-yl)thiazol-5-yl)phenyl)-3-(4-(trifluoromethyl)phenyl)urea], for which the figures for the IC50 (on V600E-mutated B-RAF; in assay [1]) were at most 0.1 µM and 0.1 to 1 µM, respectively.
In the case of `Cc1nc(-c2ccnc(N)c2)c(-c2ccc(F)c(NC(=O)Nc3ccc(Cl)cc3)c2)s1` [Example 22, 1-(5-(4-(2-aminopyridin-4-yl)-2-methylthiazol-5-yl)-2-fluorophenyl)-3-(4-chlorophenyl)urea], the IC50 at V600E-mutated B-RAF was at most 0.1 µM; in assay [1], 1 to 10 µM.
In the case of `CCn1cc(-c2cccc(N(O)C(=O)Nc3ccc(C(F)(F)F)cc3)c2)c(-c2ccncc2)n1` [Example 63, 1-(3-(1-ethyl-3-(pyridin-4-yl)-1H-pyrazol-4-yl)phenyl)-1-hydroxy-3-(4-(trifluoromethyl)phenyl)urea], the IC50 is at most 0.1 µM on V600E-mutated B-RAF and 1 to 10 µM in assay [1].
For `O=C(Nc1ccc(C(F)(F)F)cc1)Nc1cccc(-c2sc(NCCN3CCOCC3)nc2-c2ccncc2)c1` [Example 37, 1-(3-(2-(2-morpholinoethylamino)-4-(pyridin-4-yl)thiazol-5-yl)phenyl)-3-(4-(trifluoromethyl)phenyl)urea] the same measures were at most 0.1 µM and 1 to 10 µM.
The corresponding values for `Cc1nc(-c2ccncc2)c(-c2cccc(NC(=O)Nc3ccc(S(C)(=O)=O)cc3)c2)s1` [Example 17, 1-(3-(2-methyl-4-(pyridin-4-yl)thiazol-5-yl)phenyl)-3-(4-(methylsulfonyl)phenyl)urea] are at most 0.1 µM and above 10 µM.
The corresponding values for `CCn1cc(-c2cccc(NC(=O)Nc3ccc(S(=O)(=O)N4CCOCC4)cc3)c2)c(-c2ccncc2)n1` [Example 59, 1-(3-(1-ethyl-3-(pyridin-4-yl)-1H-pyrazol-4-yl)phenyl)-3-(4-(morpholinosulfonyl)phenyl)urea] are at most 0.1 µM and above 10 µM.
Take `CCn1cc(-c2cccc(NC(=O)Nc3ccc(S(C)(=O)=O)cc3)c2)c(-c2ccncc2)n1` [Example 51, 1-(3-(1-ethyl-3-(pyridin-4-yl)-1H-pyrazol-4-yl)phenyl)-3-(4-(methylsulfonyl)phenyl)urea]: the IC50 is at most 0.1 µM on V600E-mutated B-RAF and 1 to 10 µM in assay [1].
Consider `Cc1nc(-c2ccnc(N)c2)c(-c2cccc(NC(=O)Nc3ccc(C(F)(F)F)cc3)c2)s1` [Example 26, 1-(3-(4-(2-aminopyridin-4-yl)-2-methylthiazol-5-yl)phenyl)-3-(4-(trifluoromethyl)phenyl)urea], for which the 50% inhibitory concentration (IC50) on V600E-mutated B-RAF is at most 0.1 µM; in assay [1], above 10 µM.
Take `CCn1cc(-c2cccc(NC(=O)Nc3ccc(Cl)cc3)c2F)c(-c2ccncc2)n1` [Example 49, 1-(4-chlorophenyl)-3-(3-(1-ethyl-3-(pyridin-4-yl)-1H-pyrazol-4-yl)-2-fluorophenyl)urea]: the IC50 at V600E-mutated B-RAF is at most 0.1 µM; in assay [1], 0.1 to 1 µM.
Take `Cc1nc(-c2ccncc2)c(-c2cccc(NC(=O)Nc3ccc(C(F)(F)F)cc3)c2)s1` [Example 9, 1-(3-(2-methyl-4-(pyridin-4-yl)thiazol-5-yl)phenyl)-3-(4-(trifluoromethyl)phenyl)urea]: the concentration for half-maximal inhibition (IC50) at V600E-mutated B-RAF is at most 0.1 µM; in assay [1], 0.1 to 1 µM.
`Cc1nc(-c2ccncc2)c(-c2cccc(NC(=O)Nc3ccc(C(F)(F)F)cc3)c2F)s1` [Example 15, 1-(2-fluoro-3-(2-methyl-4-(pyridin-4-yl)thiazol-5-yl)phenyl)-3-(4-(trifluoromethyl)phenyl)urea]: the IC50 at V600E-mutated B-RAF fell in the range of 0.1 to 1 µM; in assay [1], 1 to 10 µM.
The corresponding values for `CCn1cc(-c2cccc(N3CCN(c4ccc(C(F)(F)F)cc4)C3=O)c2)c(-c2ccncc2)n1` [Example 53, 1-(3-(1-ethyl-3-(pyridin-4-yl)-1H-pyrazol-4-yl)phenyl)-3-(4-(trifluoromethyl)phenyl)imidazolidin-2-one] are at most 0.1 µM and 1 to 10 µM.
Take `O=C(Nc1ccc(Cl)cc1)Nc1cccc(-c2sc(N3CCOCC3)nc2-c2ccncc2)c1` [Example 33, 1-(4-chlorophenyl)-3-(3-(2-morpholino-4-(pyridin-4-yl)thiazol-5-yl)phenyl)urea]: the results for the 50% inhibitory concentration (IC50) (at V600E-mutated B-RAF; in assay [1]) were at most 0.1 µM and 1 to 10 µM, respectively.
For the compound `Cc1nc(-c2ccncc2)c(-c2cccc(NS(=O)(=O)c3cc(F)ccc3F)c2)s1` [Example 41, 2,5-Difluoro-N-[3-(2-methyl-4-pyridin-4-yl-thiazol-5-yl)-phenyl]-benzenesulfonamide], the IC50 at V600E-mutated B-RAF is at most 0.1 µM; in assay [1], 1 to 10 µM.
Turning to `CCn1cc(-c2cccc(NC(=O)Nc3ccc(OC)cc3)c2)c(-c2ccncc2)n1` [Example 57, 1-(3-(1-ethyl-3-(pyridin-4-yl)-1H-pyrazol-4-yl)phenyl)-3-(4-methoxyphenyl)urea], the IC50 (on V600E-mutated B-RAF; in assay [1]) was at most 0.1 µM each time.
Regarding `Cc1nc(-c2ccncc2)c(-c2cccc(NC(=O)Nc3ccc(Cl)cc3)c2)s1` [Example 3, 1-(4-chlorophenyl)-3-(3-(2-methyl-4-(pyridin-4-yl)thiazol-5-yl)phenyl)urea], the half-maximal inhibitory concentration (IC50) is at most 0.1 µM at V600E-mutated B-RAF and 1 to 10 µM in assay [1].
The corresponding values for `Cc1nc(-c2ccncc2)c(-c2ccc(F)c(NC(=O)Nc3cccc(Cl)c3)c2)s1` [Example 13, 1-(3-chlorophenyl)-3-(2-fluoro-5-(2-methyl-4-(pyridin-4-yl)thiazol-5-yl)phenyl)urea] are at most 0.1 µM and 1 to 10 µM.
For the compound `Cc1nc(-c2ccncc2)c(-c2ccc(F)c(NC(=O)Nc3cccc(C(F)(F)F)c3)c2)s1` [Example 16, 1-(2-fluoro-5-(2-methyl-4-(pyridin-4-yl)thiazol-5-yl)phenyl)-3-(3-(trifluoromethyl)phenyl)urea], the IC50 at V600E-mutated B-RAF is at most 0.1 µM; in assay [1] it was above 10 µM.
